Experimental data as given in patent US20220081387A1, “METHODS FOR PREPARING AMMONIUM TETRATHIOMOLYBDATE” (Alexion Pharmaceuticals, Inc., priority 2019, published 2022).

Assay: Long-term stability study of ATTM samples, determined by HPLC
Assay type: physicochemical
Method: ATTM Samples 1 and 2 were prepared essentially according to procedure in Example 1 starting with 12 kg of ammonium heptamolybdate. The isolated product was packed and stored immediately. Specifically, the samples were packaged corresponding to the packaging of the bulk material under argon in transparent anti-static polyethylene plastic bags, 90 10 10, 110 mm×170 mm, and the bags containing the samples were sealed with a plastic tie, and then subsequently packed in welded aluminium bags along with a drying agent in-between the two bags. Additional samples were packaged with ambient atmosphere in transparent anti-static polyethylene plastic bags, 90 10 10, 110 mm×170 mm. The bags containing the samples were sealed with a plastic tie, and then subsequently packed in welded aluminium bags along with a drying agent in-between the two bags.

[NH4+].[NH4+].[SH-].[SH-].[S]=[Mo]=[S] [Sample 1, ammonium tetrathiomolybdate]
(NH4)6Mo7O24 (5 °C, Air, 3 mo): <0.05 w/w %
ATTM (5 °C, Air, 3 mo): 99.2 w/w %
Dimer S6 (5 °C, Air, 3 mo): <0.05 w/w %
TM1 (5 °C, Air, 3 mo): <0.05 w/w %
TM2 (5 °C, Air, 3 mo): <0.05 w/w %
TM3 (5 °C, Air, 3 mo): 0.93 w/w %
(NH4)6Mo7O24 (5 °C, Air, 6 mo): <0.05 w/w %
ATTM (5 °C, Air, 6 mo): 98.6 w/w %
Dimer S6 (5 °C, Air, 6 mo): <0.05 w/w %
Insoluble materials (5 °C, Air, 6 mo): <0.1 w/w %
TM1 (5 °C, Air, 6 mo): <0.05 w/w %
TM2 (5 °C, Air, 6 mo): <0.05 w/w %
TM3 (5 °C, Air, 6 mo): 0.94 w/w %
(NH4)6Mo7O24 (5 °C, Air, Initial): <0.05 w/w %
ATTM (5 °C, Air, Initial): 98.8 w/w %
Dimer S6 (5 °C, Air, Initial): <0.05 w/w %
Insoluble materials (5 °C, Air, Initial): <0.1 w/w %
TM1 (5 °C, Air, Initial): <0.05 w/w %
TM2 (5 °C, Air, Initial): <0.05 w/w %
TM3 (5 °C, Air, Initial): 0.77 w/w %
(NH4)6Mo7O24 (5 °C, Ar, 3 mo): <0.05 w/w %
ATTM (5 °C, Ar, 3 mo): 99.1 w/w %
Dimer S6 (5 °C, Ar, 3 mo): <0.05 w/w %
TM1 (5 °C, Ar, 3 mo): <0.05 w/w %
TM2 (5 °C, Ar, 3 mo): <0.05 w/w %
TM3 (5 °C, Ar, 3 mo): 0.96 w/w %
(NH4)6Mo7O24 (5 °C, Ar, 6 mo): <0.05 w/w %
ATTM (5 °C, Ar, 6 mo): 99.0 w/w %
Dimer S6 (5 °C, Ar, 6 mo): <0.05 w/w %
Insoluble materials (5 °C, Ar, 6 mo): <0.1 w/w %
TM1 (5 °C, Ar, 6 mo): <0.05 w/w %
TM2 (5 °C, Ar, 6 mo): <0.05 w/w %
TM3 (5 °C, Ar, 6 mo): 0.97 w/w %
(NH4)6Mo7O24 (5 °C, Ar, Initial): <0.05 w/w %
ATTM (5 °C, Ar, Initial): 98.8 w/w %
Dimer S6 (5 °C, Ar, Initial): <0.05 w/w %
Insoluble materials (5 °C, Ar, Initial): <0.1 w/w %
TM1 (5 °C, Ar, Initial): <0.05 w/w %
TM2 (5 °C, Ar, Initial): <0.05 w/w %
TM3 (5 °C, Ar, Initial): 0.77 w/w %
(NH4)6Mo7O24 (−20 °C, Air, 3 mo): <0.05 w/w %
ATTM (−20 °C, Air, 3 mo): 99.3 w/w %
Dimer S6 (−20 °C, Air, 3 mo): <0.05 w/w %
TM1 (−20 °C, Air, 3 mo): <0.05 w/w %
TM2 (−20 °C, Air, 3 mo): <0.05 w/w %
TM3 (−20 °C, Air, 3 mo): 0.93 w/w %
(NH4)6Mo7O24 (−20 °C, Air, 6 mo): <0.05 w/w %
ATTM (−20 °C, Air, 6 mo): 99.0 w/w %
Dimer S6 (−20 °C, Air, 6 mo): <0.05 w/w %
Insoluble materials (−20 °C, Air, 6 mo): <0.1 w/w %
TM1 (−20 °C, Air, 6 mo): <0.05 w/w %
TM2 (−20 °C, Air, 6 mo): <0.05 w/w %
TM3 (−20 °C, Air, 6 mo): 0.82 w/w %
(NH4)6Mo7O24 (−20 °C, Air, Initial): <0.05 w/w %
ATTM (−20 °C, Air, Initial): 98.8 w/w %
Dimer S6 (−20 °C, Air, Initial): <0.05 w/w %
Insoluble materials (−20 °C, Air, Initial): <0.1 w/w %
TM1 (−20 °C, Air, Initial): <0.05 w/w %
TM2 (−20 °C, Air, Initial): <0.05 w/w %
TM3 (−20 °C, Air, Initial): 0.77 w/w %
(NH4)6Mo7O24 (−20 °C, Ar, 3 mo): <0.05 w/w %
ATTM (−20 °C, Ar, 3 mo): 99.5 w/w %
Dimer S6 (−20 °C, Ar, 3 mo): <0.05 w/w %
TM1 (−20 °C, Ar, 3 mo): <0.05 w/w %
TM2 (−20 °C, Ar, 3 mo): <0.05 w/w %
TM3 (−20 °C, Ar, 3 mo): 1.05 w/w %
(NH4)6Mo7O24 (−20 °C, Ar, 6 mo): <0.05 w/w %
ATTM (−20 °C, Ar, 6 mo): 99.1 w/w %
Dimer S6 (−20 °C, Ar, 6 mo): <0.05 w/w %
Insoluble materials (−20 °C, Ar, 6 mo): <0.1 w/w %
TM1 (−20 °C, Ar, 6 mo): <0.05 w/w %
TM2 (−20 °C, Ar, 6 mo): <0.05 w/w %
TM3 (−20 °C, Ar, 6 mo): 0.88 w/w %
(NH4)6Mo7O24 (−20 °C, Ar, Initial): <0.05 w/w %
ATTM (−20 °C, Ar, Initial): 98.8 w/w %
Dimer S6 (−20 °C, Ar, Initial): <0.05 w/w %
Insoluble materials (−20 °C, Ar, Initial): <0.1 w/w %
TM1 (−20 °C, Ar, Initial): <0.05 w/w %
TM2 (−20 °C, Ar, Initial): <0.05 w/w %
TM3 (−20 °C, Ar, Initial): 0.77 w/w %

[NH4+].[NH4+].[SH-].[SH-].[S]=[Mo]=[S] [Sample 2, ammonium tetrathiomolybdate]
(NH4)6Mo7O24 (5 °C, Air, 3 mo): <0.05 w/w %
ATTM (5 °C, Air, 3 mo): 98.6 w/w %
Dimer S6 (5 °C, Air, 3 mo): <0.05 w/w %
TM1 (5 °C, Air, 3 mo): <0.05 w/w %
TM2 (5 °C, Air, 3 mo): <0.05 w/w %
TM3 (5 °C, Air, 3 mo): 1.13 w/w %
(NH4)6Mo7O24 (5 °C, Air, 6 mo): <0.05 w/w %
ATTM (5 °C, Air, 6 mo): 97.9 w/w %
Dimer S6 (5 °C, Air, 6 mo): <0.05 w/w %
Insoluble materials (5 °C, Air, 6 mo): <0.1 w/w %
TM1 (5 °C, Air, 6 mo): <0.05 w/w %
TM2 (5 °C, Air, 6 mo): <0.05 w/w %
TM3 (5 °C, Air, 6 mo): 0.95 w/w %
(NH4)6Mo7O24 (5 °C, Air, Initial): <0.05 w/w %
ATTM (5 °C, Air, Initial): 98.8 w/w %
Dimer S6 (5 °C, Air, Initial): <0.05 w/w %
Insoluble materials (5 °C, Air, Initial): <0.1 w/w %
TM1 (5 °C, Air, Initial): <0.05 w/w %
TM2 (5 °C, Air, Initial): <0.05 w/w %
TM3 (5 °C, Air, Initial): 1.01 w/w %
(NH4)6Mo7O24 (5 °C, Ar, 3 mo): <0.05 w/w %
ATTM (5 °C, Ar, 3 mo): 99.0 w/w %
Dimer S6 (5 °C, Ar, 3 mo): <0.05 w/w %
TM1 (5 °C, Ar, 3 mo): <0.05 w/w %
TM2 (5 °C, Ar, 3 mo): <0.05 w/w %
TM3 (5 °C, Ar, 3 mo): 0.99 w/w %
(NH4)6Mo7O24 (5 °C, Ar, 6 mo): <0.05 w/w %
ATTM (5 °C, Ar, 6 mo): 98.2 w/w %
Dimer S6 (5 °C, Ar, 6 mo): <0.05 w/w %
Insoluble materials (5 °C, Ar, 6 mo): <0.1 w/w %
TM1 (5 °C, Ar, 6 mo): <0.05 w/w %
TM2 (5 °C, Ar, 6 mo): <0.05 w/w %
TM3 (5 °C, Ar, 6 mo): 1.03 w/w %
(NH4)6Mo7O24 (5 °C, Ar, Initial): <0.05 w/w %
ATTM (5 °C, Ar, Initial): 98.8 w/w %
Dimer S6 (5 °C, Ar, Initial): <0.05 w/w %
Insoluble materials (5 °C, Ar, Initial): <0.1 w/w %
TM1 (5 °C, Ar, Initial): <0.05 w/w %
TM2 (5 °C, Ar, Initial): <0.05 w/w %
TM3 (5 °C, Ar, Initial): 1.01 w/w %
(NH4)6Mo7O24 (−20 °C, Air, 3 mo): <0.05 w/w %
ATTM (−20 °C, Air, 3 mo): 99.4 w/w %
Dimer S6 (−20 °C, Air, 3 mo): <0.05 w/w %
TM1 (−20 °C, Air, 3 mo): <0.05 w/w %
TM2 (−20 °C, Air, 3 mo): <0.05 w/w %
TM3 (−20 °C, Air, 3 mo): 0.92 w/w %
(NH4)6Mo7O24 (−20 °C, Air, 6 mo): <0.05 w/w %
ATTM (−20 °C, Air, 6 mo): 98.2 w/w %
Dimer S6 (−20 °C, Air, 6 mo): <0.05 w/w %
Insoluble materials (−20 °C, Air, 6 mo): <0.1 w/w %
TM1 (−20 °C, Air, 6 mo): <0.05 w/w %
TM2 (−20 °C, Air, 6 mo): <0.05 w/w %
TM3 (−20 °C, Air, 6 mo): 1.13 w/w %
(NH4)6Mo7O24 (−20 °C, Air, Initial): <0.05 w/w %
ATTM (−20 °C, Air, Initial): 98.8 w/w %
Dimer S6 (−20 °C, Air, Initial): <0.05 w/w %
Insoluble materials (−20 °C, Air, Initial): <0.1 w/w %
TM1 (−20 °C, Air, Initial): <0.05 w/w %
TM2 (−20 °C, Air, Initial): <0.05 w/w %
TM3 (−20 °C, Air, Initial): 1.01 w/w %
(NH4)6Mo7O24 (−20 °C, Ar, 3 mo): <0.05 w/w %
ATTM (−20 °C, Ar, 3 mo): 99.1 w/w %
Dimer S6 (−20 °C, Ar, 3 mo): <0.05 w/w %
TM1 (−20 °C, Ar, 3 mo): <0.05 w/w %
TM2 (−20 °C, Ar, 3 mo): <0.05 w/w %
TM3 (−20 °C, Ar, 3 mo): 1.07 w/w %
(NH4)6Mo7O24 (−20 °C, Ar, 6 mo): <0.05 w/w %
ATTM (−20 °C, Ar, 6 mo): 98.2 w/w %
Dimer S6 (−20 °C, Ar, 6 mo): <0.05 w/w %
Insoluble materials (−20 °C, Ar, 6 mo): <0.1 w/w %
TM1 (−20 °C, Ar, 6 mo): <0.05 w/w %
TM2 (−20 °C, Ar, 6 mo): <0.05 w/w %
TM3 (−20 °C, Ar, 6 mo): 0.98 w/w %
(NH4)6Mo7O24 (−20 °C, Ar, Initial): <0.05 w/w %
ATTM (−20 °C, Ar, Initial): 98.8 w/w %
Dimer S6 (−20 °C, Ar, Initial): <0.05 w/w %
Insoluble materials (−20 °C, Ar, Initial): <0.1 w/w %
TM1 (−20 °C, Ar, Initial): <0.05 w/w %
TM2 (−20 °C, Ar, Initial): <0.05 w/w %
TM3 (−20 °C, Ar, Initial): 1.01 w/w %
